Results published in patent US6670354B2, “Methods to enhance white blood cell count” (AnorMed, Inc., priority 1999, dated 2003).

Columns and labels:
[1] = system: white blood cell (WBC) count
Method: Eight patients received AMD-3100 at infusion dose rates of 2.5 μg/kg/hr (patients 1-4) and 5.0 μg/kg/hr (patients 5-8).

[2] = system: white blood cell (WBC) count; remark: listed apart in the source
Method: Eleven human patients having initial white blood cell counts of 4,000-6,500 cells/mm^3 were used in the study. An intravenous dosing solution of AMD3100 (i.e., 1,1′-[1,4-phenylene-bis(methylene)]-bis-1,4,8,11-tetraazacyclotetradecane) were prepared from a stock solution which is a 1 mg/ml 1:10 dilution of a concentrate in 0.9% saline (normal saline) under sterile conditions. Aliquots from this stock solution were added to 50-ml bags of 0.9% saline for intravenous injection in amounts to achieve the desired dosage levels (10 μg/kg-80 μg/kg).
The subjects described in this example already contained an indwelling peripheral intravenous catheter. The prescribed amount of AMD3100 was administered over 15 minutes by intravenous fusion in a single dose. Blood samples were obtained prior to the dose, and at various times up to 24 hours after dose administration.
Eleven human subjects received intravenous administration of AMD-3100 at doses 10, 20, 40, and 80 μg/kg. Five subjects also received a single subcutaneous injection of AMD-3100 at doses of 40 and 80 μg/kg. Three patients were administered dosages of 10 μg/kg (open circles); 3 patients were administered dosages of 20 μg/kg (solid circles); 3 patients were administered 40 μg/kg (open triangles); and 2 patients were administered 80 μg/kg (closed triangles).

SMILES: c1cc(CN2CCCNCCNCCCNCC2)ccc1CN1CCCNCCNCCCNCC1 [AMD3100, 1,1′-[1,4-phenylene-bis(methylene)]-bis-1,4,8,11-tetraazacyclotetradecane]
- time for WBC counts to return to baseline after discontinuation of the infusion ([1]; continuous infusion 2.5 or 5.0 μg/kg/hr for up to 10 days, HIV-infected patients): 7 days
- ability to enhance WBC count in human patients ([1]; following single dose or with continuous infusion): consistently able to enhance WBC count
- effect on white blood cell count after administration ([2]; all 11 patients, 10, 20, 40, 80 μg/kg i.v. over 15 minutes, single dose, over the succeeding 5-10 hours, tapered off after about 24 hours, not returning to original level): marked increase in white blood cell count
- white blood cell count, peak value ([2]; one patient who received 80 μg/kg i.v., from 6,000 cells/mm^3 before dose): 19,000 cells/mm^3
- white blood cell count after increase ([2]; patient showing the least response, 20 μg/kg i.v., from about 6,300 cells/mm^3): about 9,000 cells/mm^3
